This series concerns human PKA catalytic subunit C-alpha mRNA. In words: Inhibition of PKA catalytic subunit C-alpha mRNA levels in oligonucleotide-treated cells, quantitative real-time PCR. The note with it: Table 1, phosphorothioate oligodeoxynucleotides, averages from two experiments. It is filed as cell-based. The arrangement: concentration or dose not given beside the values. The procedure:
when cells reached 80% confluency, they were treated with oligonucleotide. For cells grown in 96-well plates, wells were washed once with 200 μL. OPTI-MEM™-1 reduced-serum medium (Gibco BRL) and then treated with 130 μL of OPTI-MEM™-1 containing 3.75 μg/mL LIPOFECTIN™ (Gibco BRL) and the desired concentration of oligonucleotide. After 4-7 hours of treatment, the medium was replaced with fresh medium. Cells were harvested 16-24 hours after oligonucleotide treatment.
Poly(A)+ mRNA was isolated according to Miura et al., Clin. Chem., 1996, 42, 1758-1764. Other methods for poly(A)+ mRNA isolation are taught in, for example, Ausubel, F. M. et al., Current Protocols in Molecular Biology, Volume 1, pp. 4.5.1-4.5.3, John Wiley & Sons, Inc., 1993. Briefly, for cells grown on 96-well plates, growth medium was removed from the cells and each well was washed with 200 μL cold PBS. 60 μL lysis buffer (10 mM Tris-HCl, pH 7.6, 1 mM EDTA, 0.5 M NaCl, 0.5% NP-40, 20 mM vanadyl-ribonucleoside complex) was added to each well, the plate was gently agitated and then incubated at room temperature for five minutes. 55 μL of lysate was transferred to Oligo d(T) coated 96-well plates (AGCT Inc., Irvine Calif.). Plates were incubated for 60 minutes at room temperature, washed 3 times with 200 μL of wash buffer (10 mM Tris-HCl pH 7.6, 1 mM EDTA, 0.3 M NaCl). After the final wash, the plate was blotted on paper towels to remove excess wash buffer and then air-dried for 5 minutes. 60 μL of elution buffer (5 mM Tris-HCl pH 7.6), preheated to 70° C. was added to each well, the plate was incubated on a 90° C. hot plate for 5 minutes, and the eluate was then transferred to a fresh 96-well plate.
Quantitat:ion of PKA catalytic subunit C-alpha mRNA levels was determined by real-time quantitative PCR using the ABI PRISM™ […] Sequence Detection System (PE-Applied Biosystems, Foster City, Calif.) according to manufacturer's instructions. This is a closed-tube, non-gel-based, fluorescence detection system which allows high-throughput quantitation of polymerase chain reaction (PCR) products in real-time. As opposed to standard PCR, in which amplification products are quantitated after the PCR is completed, products in real-time quantitative PCR are quantitated as they accumulate. This is accomplished by including in the PCR reaction an oligonucleotide probe that anneals specifically between the forward and reverse PCR primers, and contains two fluorescent dyes. A reporter dye (e.g., JOE, FAM, or VIC, obtained from either Operon Technologies Inc., Alameda, Calif. or PE-Applied Biosystems, Foster City, Calif.) is attached to the 5' end of the probe and a quencher dye (e.g., TAMRA, obtained from either Operon Technologies Inc., Alameda, Calif. or PE-Applied Biosystems, Foster City, Calif.) is attached to the 3' end of the probe. When the probe and dyes are intact, reporter dye emission is quenched by the proximity of the 3' quencher dye. During amplification, annealing of the probe to the target sequence creates a substrate that can be cleaved by the 5'-exonuclease activity of Taq polymerase. […] With each cycle, additional reporter dye molecules are cleaved from their respective probes, and the fluorescence intensity is monitored at regular intervals by laser optics built into the ABI PRISM™ 7700 Sequence Detection System. In each assay, a series of parallel reactions containing serial dilutions of mRNA from untreated control samples generates a standard curve that is used to quantitate the percent inhibition after antisense oligonucleotide treatment of test samples.
PCR reagents were obtained from PE-Applied Biosystems, Foster City, Calif. […]
A general note: In qPCR the cycle at which signal appears reflects the starting amount.
Take “102436 (antisense TGGCTGCGGCCGGCGGCCCG; chemistry not given here) [compound 102436]”: the “% Inhibition of PKA catalytic subunit C-alpha mRNA levels” value (“% Inhibition” for short) worked out at 49%. For “102438 (antisense GCGGCGGGTGCTGGCTGCGG; chemistry not given here) [compound 102438]” the value was 15%; for “102440 (antisense TCGCGGCGGCGGCGGCCGGG; chemistry not given here) [compound 102440]”, 19%; for “102442 (antisense CATCGCGGCGGCGGCGGCCG; chemistry not given here) [compound 102442]”, 49%. For “102444 (antisense CCCATCGCGGCGGCGGCGGC; chemistry not given here) [compound 102444]” the value was 47%; for “102446 (antisense TGCCCATCGCGGCGGCGGCG; chemistry not given here) [compound 102446]”, 29%. For “102448 (antisense GTTGCCCATCGCGGCGGCGG; chemistry not given here) [compound 102448]” the value was 47%; for “102450 (antisense GCGTTGCCCATCGCGGCGGC; chemistry not given here) [compound 102450]”, 64%. For “102454 (antisense CGGCGTTGCCCATCGCGGCG; chemistry not given here) [compound 102454]”, the “% Inhibition” value is on record as 53%. Under “102458 (antisense GGCGGCGTTGCCCATCGCGG; chemistry not given here) [compound 102458]” stands 69%. Under “102462 (antisense GCGGCGGCGTTGCCCATCGC; chemistry not given here) [compound 102462]” stands 67%; under “102466 (antisense CGGCGGCGGCGTTGCCCATC; chemistry not given here) [compound 102466]”, 79%. For “102470 (antisense GGCGGCGGCGGCGTTGCCCA; chemistry not given here) [compound 102470]”, the “% Inhibition” value is 49%. Under “102474 (antisense ATTCTTTCACGCTCTCCTGC; chemistry not given here) [compound 102474]” stands 3%; under “102478 (antisense CAAACTGATCCAAGTGGGCT; chemistry not given here) [compound 102478]”, 73%; under “102482 (antisense CCAGCATCACCCGCCCGAAG; chemistry not given here) [compound 102482]”, 66%. Under “102486 (antisense CTTCTGTTTGTCGAGGATCT; chemistry not given here) [compound 102486]” stands 51%. For “102490 (antisense GCTTGCAGGATGCGCTTTTC; chemistry not given here) [compound 102490]” the value was 66%; for “102494 (antisense GTTGTCCTTGAAGGAGAACT; chemistry not given here) [compound 102494]”, 0%; for “102498 (antisense GAACATCTCCCCGCCGGGCA; chemistry not given here) [compound 102498]”, 13%.

For “102502 (antisense TAGATGAGATCCAGCGAGTG; chemistry not given here) [compound 102502]”, the “% Inhibition” value is reported as 28%. As to “102506 (antisense GCGGCCCTTCACGCGCTTGG; chemistry not given here) [compound 102506]”, the “% Inhibition” value stood at 0%. Under “102510 (antisense TCTGCGAAGAAGGGCGGGTA; chemistry not given here) [compound 102510]” stands 0%.

Regarding “102514 (antisense TCCTTCAAGTCAGAGCTGAA; chemistry not given here) [compound 102514]”, the “% Inhibition” value is on record as 44%. Under “102518 (antisense AAACCACTTGTGGTTCTTGA; chemistry not given here) [compound 102518]” stands 34%; under “102522 (antisense CTTCCTCATAGTCGTCAAAG; chemistry not given here) [compound 102522]”, 32%. For “102526 (antisense GGCATGCCCCTAAAACTCAG; chemistry not given here) [compound 102526]” the value was 45%; for “102530 (antisense GGAGCAGCTGGTGTTTCTGT; chemistry not given here) [compound 102530]”, 39%; for “102534 (antisense TTGGCGCTTCGTTCATTTGC; chemistry not given here) [compound 102534]”, 39%. Under “102538 (antisense AAGCAACCCACTGAACATGT; chemistry not given here) [compound 102538]” stands 38%; under “102543 (antisense GCTTCTCTTTAAAATGGATT; chemistry not given here) [compound 102543]”, 16%; under “102547 (antisense ACCCTCGCAGGATTGGCAGA; chemistry not given here) [compound 102547]”, 53%. Consider “102553 (antisense CGCTGCTGGGAGGAAAGACT; chemistry not given here) [compound 102553]”, for which the “% Inhibition” value was determined as 52%. Under “102558 (antisense TGCAGGGATGCCCTCCCCAC; chemistry not given here) [compound 102558]” stands 65%. Under “102563 (antisense CCTTGAACCCCGGGCCGTGG; chemistry not given here) [compound 102563]” stands 56%; under “102568 (antisense CAGGCAGCCCCTCCCCAGCA; chemistry not given here) [compound 102568]”, 49%; under “102573 (antisense AGCACAAATGAGAAAGTGGG; chemistry not given here) [compound 102573]”, 7%. For “102579 (antisense TGGCTCCCCAGCGGCTCCCC; chemistry not given here) [compound 102579]” the value was 36%; for “102584 (antisense CACACAGGTTGAATCGCCCC; chemistry not given here) [compound 102584]”, 61%.
